One test deals with mutant BRAF kinase (Homo sapiens (Human), UniProt P15056, V600E). Particulars: read-out: BRAF V600E Kd, class symbols.
The subject of test [1] is panel of 290 distinct kinases (321 in the larger panel), excluding mutant variants. Particulars: kinase selectivity score, class symbols.
The target of the next test is RAF kinases (Homo sapiens (Human), UniProt P04049). Particulars: read-out: RAF1 Kd, class symbols.
Where [2] appears, read: value marked * (larger kinase panel).

Structures are written as SMILES. Structures can show the parent of a compound that is named as a salt. Where two headings read alike, the source gives them in different places.

Chain of RAF kinases (P04049 whole entry): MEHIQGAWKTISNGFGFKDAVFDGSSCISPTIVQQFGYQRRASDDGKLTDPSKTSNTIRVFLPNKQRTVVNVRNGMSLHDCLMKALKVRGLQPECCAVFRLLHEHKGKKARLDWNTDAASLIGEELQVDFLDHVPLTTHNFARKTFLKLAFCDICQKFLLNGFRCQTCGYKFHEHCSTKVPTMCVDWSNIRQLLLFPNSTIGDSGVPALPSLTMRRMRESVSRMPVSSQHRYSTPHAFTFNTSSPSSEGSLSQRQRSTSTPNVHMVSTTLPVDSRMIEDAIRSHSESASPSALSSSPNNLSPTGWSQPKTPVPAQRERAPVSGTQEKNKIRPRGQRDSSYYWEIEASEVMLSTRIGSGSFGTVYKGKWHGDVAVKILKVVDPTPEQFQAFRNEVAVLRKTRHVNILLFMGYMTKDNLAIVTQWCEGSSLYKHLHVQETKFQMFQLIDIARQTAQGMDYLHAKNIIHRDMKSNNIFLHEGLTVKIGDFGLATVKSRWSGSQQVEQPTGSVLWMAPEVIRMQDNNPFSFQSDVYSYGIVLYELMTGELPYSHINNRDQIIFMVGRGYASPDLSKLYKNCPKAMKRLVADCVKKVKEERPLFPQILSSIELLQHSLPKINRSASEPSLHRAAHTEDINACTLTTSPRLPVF
Chain of mutant BRAF kinase (P15056 whole entry V600E): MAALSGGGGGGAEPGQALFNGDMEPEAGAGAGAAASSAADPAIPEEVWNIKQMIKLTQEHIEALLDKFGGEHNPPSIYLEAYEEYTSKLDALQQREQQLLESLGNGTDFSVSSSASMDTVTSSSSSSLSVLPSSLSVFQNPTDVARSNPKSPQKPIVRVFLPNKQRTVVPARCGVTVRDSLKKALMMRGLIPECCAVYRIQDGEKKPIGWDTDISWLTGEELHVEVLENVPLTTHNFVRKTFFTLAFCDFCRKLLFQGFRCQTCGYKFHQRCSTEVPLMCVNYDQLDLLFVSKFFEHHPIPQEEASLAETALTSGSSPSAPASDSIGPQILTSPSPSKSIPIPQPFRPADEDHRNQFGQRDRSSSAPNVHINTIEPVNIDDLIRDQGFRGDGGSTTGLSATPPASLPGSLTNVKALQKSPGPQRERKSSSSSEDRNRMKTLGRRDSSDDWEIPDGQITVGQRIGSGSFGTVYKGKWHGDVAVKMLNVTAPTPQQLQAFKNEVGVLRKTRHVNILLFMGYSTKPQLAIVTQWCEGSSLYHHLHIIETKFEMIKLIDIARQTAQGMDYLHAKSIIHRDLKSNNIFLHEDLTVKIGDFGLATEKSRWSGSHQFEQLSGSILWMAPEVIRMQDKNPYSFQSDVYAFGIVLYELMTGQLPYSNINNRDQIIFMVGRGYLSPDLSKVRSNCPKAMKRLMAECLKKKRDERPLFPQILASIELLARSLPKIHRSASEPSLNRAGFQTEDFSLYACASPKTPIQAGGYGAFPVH
Method for RAF kinases: The liganded beads were blocked with excess biotin and washed with blocking buffer (SeaBlock (Pierce), 1% BSA, 0.05% Tween 20, 1 mM DTT) to remove unbound ligand and to reduce non-specific binding. […] Test compounds were prepared as 100× stocks in DMSO and rapidly diluted into the aqueous environment. DMSO was added to control assays lacking a test compound. Primary screen interactions were performed in polypropylene 384-well plates in a final volume of 34 μL, while Kd determinations were performed in polystyrene 96-well plates in a final volume of 135 μL. […] The kinase concentration in the eluates was measured by quantitative PCR. Each kinase was tested individually against each compound. KdS were determined using eleven serial threefold dilutions. A selectivity score, which is a quantitative measure of selectivity of a compound against a panel of enzymes, may be calculated for a compound by dividing the number of enzymes for which a compound meets a set criteria, (for example, a binding constant of 100 nM or less), by the total number of enzymes tested. […] (Note, for those compounds tested in a larger kinase panel, as indicated by an asterisk (*) next to the S35 score, the divisor is 321 (i.e. the larger panel contains 321 distinct kinases, excluding mutant variants.)).

By Kd is commonly meant the concentration at which binding is half-saturated. As for `COc1cc2ncnc(Oc3cccc(NC(=O)Nc4ccc(OC)c(C(F)(F)F)c4)c3)c2cc1OC` [Ex 138, 1-(3-(6,7-dimethoxyquinazolin-4-yloxy)phenyl)-3-(4-methoxy-3-(trifluoromethyl)phenyl)urea], the Kd on mutant BRAF kinase and on RAF kinases was below 250 nM throughout. Also, in test [1] (290 distinct kinases), the S35 result is reported as “B (0.10 < B ≦ 0.20)”.

Regarding `COc1cc2ncnc(Oc3cccc(NC(=O)Nc4cc(C(C)(C)CO)on4)c3)c2cc1OC` [Ex 131, 1-(3-(6,7-dimethoxyquinazolin-4-yloxy)phenyl)-3-(5-(1-hydroxy-2-methylpropan-2-yl)isoxazol-3-yl)urea], the Kd on mutant BRAF kinase and on RAF kinases was below 250 nM each time. In addition, in test [1] (290 distinct kinases), the S35 result was “C (0.20 < C ≦ 0.40)”.

As to `COc1cc2c(Oc3cccc(NC(=O)Nc4cc(C(C)(C)C)on4)c3)ncnc2cc1OCCCN1CCN(C)CC1` [Ex 28, 1-(5-tert-butylisoxazol-3-yl)-3-(3-(6-methoxy-7-(3-(4-methylpiperazin-1-yl)propoxy)quinazolin-4-yloxy)phenyl)urea], the Kd on mutant BRAF kinase and on RAF kinases was below 250 nM throughout. Further, the S35 result in test [1] (290 distinct kinases) is recorded as “D (D > 0.40)”.

In the case of `COc1cc2ncnc(Sc3cccc(NC(=O)Nc4cc(C(C)(C)C)on4)c3)c2cc1OCCCN1CCOCC1` [Ex 63, 1-(5-tert-butylisoxazol-3-yl)-3-(3-(7-methoxy-6-(3-morpholinopropoxy)quinazolin-4-ylthio)phenyl)urea], the Kd on mutant BRAF kinase and on RAF kinases was below 250 nM each time. Moreover, in test [1] (290 distinct kinases), the S35 result is given as “C (0.20 < C ≦ 0.40)”.

`COc1cc2ncnc(Sc3cccc(NC(=O)Nc4cc(C(C)(C)C)on4)c3)c2cc1OCCCN1CCN(CCO)CC1` [Ex 61, 1-(5-tert-butylisoxazol-3-yl)-3-(3-(6-(3-(4-(2-hydroxyethyl)piperazin-1-yl)propoxy)-7-methoxyquinazolin-4-ylthio)phenyl)urea]: the Kd on mutant BRAF kinase and at RAF kinases was below 250 nM in each case. Besides, in test [1] (290 distinct kinases), the S35 result is “D (D > 0.40)”.

Consider `COc1cc2ncnc(Sc3cccc(NC(=O)Nc4cccc(C(F)(F)F)c4)c3)c2cc1OC` [Ex 185, 1-(3-(6,7-dimethoxyquinazolin-4-ylthio)phenyl)-3-(3-(trifluoromethyl)phenyl)urea], for which the Kd at mutant BRAF kinase and on RAF kinases was below 250 nM each time. In test [1] (setting [2]), the S35 entry is “C* (0.20 < C ≦ 0.40)”.

Take `COc1cc2ncnc(Oc3cccc(NC(=O)Nc4cc(-c5ccccc5)on4)c3)c2cc1OC` [Ex 113, 1-(3-(6,7-dimethoxyquinazolin-4-yloxy)phenyl)-3-(5-phenylisoxazol-3-yl)urea]: in test [1] (290 distinct kinases), the S35 result is given as “B (0.10 < B ≦ 0.20)”. On RAF kinases, the Kd was below 250 nM.

Take `COc1cc2ncnc(Oc3cccc(NC(=O)Nc4cc(C(F)(F)F)ncn4)c3)c2cc1OC` [Ex 146, 1-(3-(6,7-dimethoxyquinazolin-4-yloxy)phenyl)-3-(6-(trifluoromethyl)pyrimidin-4-yl)urea]: the Kd on mutant BRAF kinase is below 250 nM. The S35 entry in test [1] (setting [2]) was “B* (0.10 < B ≦ 0.20)”.

`COc1cc2c(Oc3cccc(NC(=O)Nc4cc(C(C)(C)C)on4)c3)ncnc2cc1OCCN1CCN(CCO)CC1` [Ex 38, 1-(5-tert-butylisoxazol-3-yl)-3-(3-(7-(2-(4-(2-hydroxyethyl)piperazin-1-yl)ethoxy)-6-methoxyquinazolin-4-yloxy)phenyl)urea]: the Kd on mutant BRAF kinase is below 250 nM. Besides, the S35 entry in test [1] (290 distinct kinases) was “D (D > 0.40)”.

Consider `COc1cc2ncnc(Oc3cccc(NC(=O)Nc4cc(C(C)(C)C)on4)c3)c2cc1OC[C@H](O)CN1CCN(C)CC1` [Ex 112, (R)-1-(5-tert-butylisoxazol-3-yl)-3-(3-(6-(2-hydroxy-3-(4methylpiperazin-1-yl)propoxy)-7-methoxyquinazolin-4-yloxy)phenyl)urea], for which, at mutant BRAF kinase, the Kd was below 250 nM. In test [1] (290 distinct kinases), the S35 result is “D (D > 0.40)”.

Regarding `COc1cc2ncnc(Sc3cccc(NC(=O)Nc4cc(C(C)(C)C)on4)c3)c2cc1OCCCN1CCC(CO)CC1` [Ex 58, 1-(5-tert-butylisoxazol-3-yl)-3-(3-(6-(3-(4-(hydroxymethyl)piperidin-1-yl)propoxy)-7-methoxyquinazolin-4-ylthio)phenyl)urea], the Kd on mutant BRAF kinase is below 250 nM. Moreover, in test [1] (290 distinct kinases), the S35 result is given as “D (D > 0.40)”.

With `COc1cc2ncnc(Sc3cccc(NC(=O)Nc4cc(C(C)(CF)CF)no4)c3)c2cc1OC` [Ex 160, 1-[3-(1,3-difluoro-2-methylpropan-2-yl)isoxazol-5-yl]-3-[3-(6,7-dimethoxyquinazolin-4-ylthio]phenyl)urea], the Kd at mutant BRAF kinase is below 250 nM. Further, the S35 entry in test [1] (setting [2]) is on record as “C* (0.20 < C ≦ 0.40)”.

On to `COc1cc2ncnc(Oc3cccc(NC(=O)Nc4cc(C(C)(C)C)on4)c3)c2cc1OCCCN1CCN(S(C)(=O)=O)CC1` [Ex 25, 1-(5-tert-butylisoxazol-3-yl)-3-(3-(7-methoxy-6-(3-(4-(methylsulfonyl)piperazin-1-yl)propoxy)quinazolin-4-yloxy)phenyl)urea], for which, at mutant BRAF kinase, the Kd was below 250 nM. For the same compound, the S35 result in test [1] (290 distinct kinases) was “D (D > 0.40)”.

In the case of `COc1cc2c(Oc3cccc(NC(=O)Nc4cc(C(C)(C)C)on4)c3)ncnc2cc1OCCCN1CCN(S(C)(=O)=O)CC1` [Ex 32, 1-(5-tert-butylisoxazol-3-yl)-3-(3-(6-methoxy-7-(3-(4-(methylsulfonyl)piperazin-1-yl)propoxy)quinazolin-4-yloxy)phenyl)urea], the Kd at mutant BRAF kinase is below 250 nM. The S35 result in test [1] (290 distinct kinases) was “D (D > 0.40)”.

For the compound `COc1cc2c(Sc3cccc(NC(=O)Nc4cc(C(C)(C)C)on4)c3)ncnc2cc1OCCCN1CCN(C)CC1` [Ex 73, 1-(5-tert-butylisoxazol-3-yl)-3-(3-(6-methoxy-7-(3-(4-methylpiperazin-1-yl)propoxy)quinazolin-4-ylthio)phenyl)urea], the Kd at mutant BRAF kinase was below 250 nM. For the same compound, the S35 entry in test [1] (290 distinct kinases) is “D (D > 0.40)”.

As to `COCCOc1cc(NC(=O)Nc2cccc(Sc3ncnc4cc(OC)c(OC)cc34)c2)cc(C(F)(F)F)c1` [Ex 200, 1-(3-(6,7-dimethoxyquinazolin-4-ylthio)phenyl)-3-(3-(2-methoxyethoxy)-5-(trifluoromethyl)phenyl)urea], in test [1] (290 distinct kinases), the S35 entry is on record as “C (0.20 < C ≦ 0.40)”. Further, the Kd at RAF kinases is above 1000 nM.

`COc1cc2c(Oc3cccc(NC(=O)Nc4cc(C(C)(C)C)on4)c3)ncnc2cc1OCCN1CCOCC1` [Ex 35, 1-(5-tert-butylisoxazol-3-yl)-3-(3-(6-methoxy-7-(2-morpholinoethoxy)quinazolin-4-yloxy)phenyl)urea]: the Kd on mutant BRAF kinase is below 250 nM. Also, in test [1] (290 distinct kinases), the S35 entry is recorded as “C (0.20 < C ≦ 0.40)”.

Regarding `COc1cc2c(Oc3cccc(NC(=O)Nc4cc(C(C)(C)C)on4)c3)ncnc2cc1OCCN1CCN(C)CC1` [Ex 36, 1-(5-tert-butylisoxazol-3-yl)-3-(3-(6-methoxy-7-(2-(4-methylpiperazin-1-yl)ethoxy)quinazolin-4-yloxy)phenyl)urea], the Kd at mutant BRAF kinase was below 250 nM. In test [1] (290 distinct kinases), the S35 entry was “C (0.20 < C ≦ 0.40)”.

For `COc1cc2c(Oc3cccc(NC(=O)Nc4cc(C(C)(C)C)on4)c3)ncnc2cc1O[C@@H]1CCN(C)C1` [Ex 99, (R)-1-(5-tert-butylisoxazol-3-yl)-3-(3-(6-methoxy-7-(1-methylpyrrolidin-3-yloxy)quinazolin-4-yloxy)phenyl)urea mono acetate], the Kd at mutant BRAF kinase is below 250 nM. Further, in test [1] (290 distinct kinases), the S35 entry was “C (0.20 < C ≦ 0.40)”.

`COc1cc2c(Sc3cccc(NC(=O)Nc4cc(C(C)(C)C)on4)c3)ncnc2cc1OCCN1CCCCC1` [Ex 80, 1-(5-tert-butylisoxazol-3-yl)-3-(3-(6-methoxy-7-(2-(piperidin-1-yl)ethoxy)quinazolin-4-ylthio)phenyl)urea]: the Kd at mutant BRAF kinase was below 250 nM. Besides, the S35 result in test [1] (290 distinct kinases) was “C (0.20 < C ≦ 0.40)”.

As to `COc1cc2ncnc(Sc3cccc(NC(=O)Nc4cc(C(C)(C)C)on4)c3)c2cc1OCCN1CCC(CO)CC1` [Ex 66, 1-(5-tert-butylisoxazol-3-yl)-3-(3-(6-(2-(4-(hydroxymethyl)piperidin-1-yl)ethoxy)-7-methoxyquinazolin-4-ylthio)phenyl)urea], on mutant BRAF kinase, the Kd is below 250 nM. Also, in test [1] (290 distinct kinases), the S35 entry was “C (0.20 < C ≦ 0.40)”.

`COc1cccc(NC(=O)Nc2cccc(Oc3ncnc4cc(OC)c(OC)cc34)c2)c1` [Ex 178, 1-(3-(6,7-dimethoxyquinazolin-4-yloxy)phenyl)-3-(3-methoxyphenyl)urea]: the dissociation constant (Kd) on mutant BRAF kinase is below 250 nM. The S35 result in test [1] (setting [2]) is “B* (0.10 < B ≦ 0.20)”.

As to `COc1cc2ncnc(Sc3cccc(NC(=O)Nc4cc(C(C)(C)C)nn4C)c3)c2cc1OC` [Ex 157, 1-(3-tert-butyl-1-methyl-1H-pyrazol-5-yl)-3-(3-(6,7-dimethoxyquinazolin-4-ylthio)phenyl)urea], the Kd at mutant BRAF kinase was below 250 nM. Further, in test [1] (setting [2]), the S35 entry was “C* (0.20 < C ≦ 0.40)”.

On to `COCCOc1cc2ncnc(Sc3cccc(NC(=O)Nc4cc(C(C)(C)C)on4)c3)c2cc1OC` [Ex 52, 1-(5-tert-butylisoxazol-3-yl)-3-{3-[6-methoxy-7-(2-methoxyethoxy)quinazolin-4-ylthio]phenyl}urea hydrochloride], for which the Kd at mutant BRAF kinase is below 250 nM. In addition, the S35 result in test [1] (290 distinct kinases) is reported as “C (0.20 < C ≦ 0.40)”.

Regarding `COc1cc2ncnc(Oc3cccc(NC(=O)Nc4cc(C(C)(F)F)no4)c3)c2cc1OC` [Ex 152, 1-(3-(1,1-difluoroethyl)isoxazol-5-yl)-3-(3-(6,7-dimethoxyquinazolin-4-yloxy)phenyl)urea], at mutant BRAF kinase, the Kd is below 250 nM. In addition, in test [1] (setting [2]), the S35 entry was “C* (0.20 < C ≦ 0.40)”.

On to `COc1cc2c(Oc3cccc(NC(=O)Nc4cc(C(C)(C)C)on4)c3)ncnc2cc1OCCCN1CCOCC1` [Ex 27, 1-(5-tert-butylisoxazol-3-yl)-3-(3-(6-methoxy-7-(3-morpholinopropoxy)quinazolin-4-yloxy)phenyl)urea], for which the Kd at mutant BRAF kinase was below 250 nM. For the same compound, the S35 result in test [1] (290 distinct kinases) is reported as “D (D > 0.40)”.

Turning to `COCCOc1cc2ncnc(Sc3cccc(NC(=O)Nc4cc(C(C)(C)C)on4)c3)c2cc1OCCOC` [Ex 53, 1-{3-[6,7-bis(2-methoxyethoxy)quinazolin-4-ylthio]phenyl}-3-(5-tert-butylisoxazol-3-yl)urea hydrochloride], at mutant BRAF kinase, the Kd was below 250 nM. For the same compound, in test [1] (290 distinct kinases), the S35 result is listed as “C (0.20 < C ≦ 0.40)”.

These data come from US9730937B2, “RAF kinase modulator compounds and methods of use thereof” (AMBIT BIOSCIENCES CORPORATION, priority 2008, dated 2017).
